Patent publication US12540131B2 (Merck Sharp & Dohme LLC, priority 2019, dated 2026)

target: GST tagged truncated human mutant G2019S LRRK2 (Homo sapiens (Human), UniProt Q5S007, G2019S); assay: LRRK2 Km ATP LanthaScreen Assay; type: biochemical; details: G2019S LRRK2, 134 μM ATP (Km ATP), mean values
Description: General Experimental Information: • Unless otherwise noted, all reactions are magnetically stirred. Unless otherwise noted, when diethyl ether is used in the experiments described below, it is Fisher ACS certified material and is stabilized with BHT. Unless otherwise noted, “concentrated” and/or “solvent removed under reduced pressure” means evaporating the solvent from a solution or mixture using a rotary evaporator or vacuum pump. Unless otherwise noted, flash chromatography is carried out on a Teledyne Isco (Lincoln, NE), Analogix (Burlington, WI), or Biotage (Stockholm, SWE) automated chromatography system using a commercially available cartridge as the column. Columns may be purchased from Teledyne Isco, Analogix, Biotage, Varian (Palo Alto, CA), or Supelco (Bellefonte, PA) and are usually filled with silica gel as the stationary phase. Reverse phase prep-HPLC conditions, where used, can be found at the end of each experimental section. Aqueous solutions were concentrated on a Genevac (Ipswich, ENG) or by freeze-drying/lyophilization. Unless otherwise noted, all LRRK2 pIC50 data presented in tables refers to the LRRK2 G2019S Km ATP LanthaScreen™ assay (Life Technologies Corp., Carlsbad, CA) that is described in the Biological Assay section.
The pIC50 values reported herein were measured as follows.
Biological Assay: LRRK2 Km ATP LanthaScreen™ Assay
Compound potency against LRRK2 kinase activity was determined using LanthaScreen™ technology from Life Technologies Corporation (Carlsbad, CA) using a GST20 tagged truncated human mutant G2019S LRRK2 in the presence of the fluorescein-labeled peptide substrate LRRKtide® (LRRK2 phosphorylated ezrin/radixin/moesin (ERM)), also from Life Technologies. The data presented for the Km ATP LanthaScreen™ Assay represents mean IC50 values based on several test results and may have reasonable deviations depending on the specific conditions and reagents used. Km is the Michaelis constant of an enzyme and is defined as the concentration of native substrate (ATP for a kinase) which permits the enzyme to achieve half Vmax (Vmax=rate of reaction when the enzyme is saturated with substrate). IC50 (half-maximal inhibitory concentration) represents the concentration of inhibitor required to inhibit LRRK2 kinase activity by 50%. Assays were performed in the presence of 134 μM ATP (Km ATP). Upon completion, the assay was stopped, and phosphorylated substrate detected with a terbium (Tb)-labeled anti-pERM antibody (cat. no. PV4898). The compound dose response was prepared by diluting a 10 mM stock of compound to a maximum concentration of 9.99 μM in 100% DMSO, followed by custom fold serial dilution in DMSO nine times. 20 nL of each dilution was spotted via a Labcyte Echo onto a 384-well black-sided plate (Corning 3575) followed by 15 μl of a 1.25 nM enzyme solution in 1× assay buffer (50 mM Tris pH 8.5, 10 mM MgCl2, 0.01% Brij-35, 1 mM EGTA, 2 mM dithiothreitol, 0.05 mM sodium orthovanadate). Following a 15-minute incubation period at RT, the kinase reaction was started with the addition of 5 μl of 400 nM fluorescein-labeled LRRKtide® (LRRK2 phosphorylated ezrin/radixin/moesin (ERM)) peptide substrate and 134 μM ATP solution in 1× assay buffer. The reaction was allowed to progress at ambient temperature for 90 minutes. The reaction was then stopped by the addition of 20 μl of TR-FRET Dilution Buffer (Life Technologies, Carlsbad, CA) containing 2 nM Tb-labeled anti-phospho LRRKtide® (LRRK2 phosphorylated ezrin/radixin/moesin (ERM)) antibody and 10 mM EDTA (Life Technologies, Carlsbad, CA). After an incubation period of 1 h at RT, the plate was read on an EnVision® multimode plate reader (Perkin Elmer, Waltham, MA) with an excitation wavelength of 337 nm (Laser) and a reading emission at both 520 and 495 nm. Compound IC50 values were interpolated from nonlinear regression best-fits of the log of the final compound concentration, plotted as a function of the 520/495-nm emission ratio using activity base “Abase”). […]

Sequence of GST tagged truncated human mutant G2019S LRRK2 (Q5S007 970-2527 G2019S): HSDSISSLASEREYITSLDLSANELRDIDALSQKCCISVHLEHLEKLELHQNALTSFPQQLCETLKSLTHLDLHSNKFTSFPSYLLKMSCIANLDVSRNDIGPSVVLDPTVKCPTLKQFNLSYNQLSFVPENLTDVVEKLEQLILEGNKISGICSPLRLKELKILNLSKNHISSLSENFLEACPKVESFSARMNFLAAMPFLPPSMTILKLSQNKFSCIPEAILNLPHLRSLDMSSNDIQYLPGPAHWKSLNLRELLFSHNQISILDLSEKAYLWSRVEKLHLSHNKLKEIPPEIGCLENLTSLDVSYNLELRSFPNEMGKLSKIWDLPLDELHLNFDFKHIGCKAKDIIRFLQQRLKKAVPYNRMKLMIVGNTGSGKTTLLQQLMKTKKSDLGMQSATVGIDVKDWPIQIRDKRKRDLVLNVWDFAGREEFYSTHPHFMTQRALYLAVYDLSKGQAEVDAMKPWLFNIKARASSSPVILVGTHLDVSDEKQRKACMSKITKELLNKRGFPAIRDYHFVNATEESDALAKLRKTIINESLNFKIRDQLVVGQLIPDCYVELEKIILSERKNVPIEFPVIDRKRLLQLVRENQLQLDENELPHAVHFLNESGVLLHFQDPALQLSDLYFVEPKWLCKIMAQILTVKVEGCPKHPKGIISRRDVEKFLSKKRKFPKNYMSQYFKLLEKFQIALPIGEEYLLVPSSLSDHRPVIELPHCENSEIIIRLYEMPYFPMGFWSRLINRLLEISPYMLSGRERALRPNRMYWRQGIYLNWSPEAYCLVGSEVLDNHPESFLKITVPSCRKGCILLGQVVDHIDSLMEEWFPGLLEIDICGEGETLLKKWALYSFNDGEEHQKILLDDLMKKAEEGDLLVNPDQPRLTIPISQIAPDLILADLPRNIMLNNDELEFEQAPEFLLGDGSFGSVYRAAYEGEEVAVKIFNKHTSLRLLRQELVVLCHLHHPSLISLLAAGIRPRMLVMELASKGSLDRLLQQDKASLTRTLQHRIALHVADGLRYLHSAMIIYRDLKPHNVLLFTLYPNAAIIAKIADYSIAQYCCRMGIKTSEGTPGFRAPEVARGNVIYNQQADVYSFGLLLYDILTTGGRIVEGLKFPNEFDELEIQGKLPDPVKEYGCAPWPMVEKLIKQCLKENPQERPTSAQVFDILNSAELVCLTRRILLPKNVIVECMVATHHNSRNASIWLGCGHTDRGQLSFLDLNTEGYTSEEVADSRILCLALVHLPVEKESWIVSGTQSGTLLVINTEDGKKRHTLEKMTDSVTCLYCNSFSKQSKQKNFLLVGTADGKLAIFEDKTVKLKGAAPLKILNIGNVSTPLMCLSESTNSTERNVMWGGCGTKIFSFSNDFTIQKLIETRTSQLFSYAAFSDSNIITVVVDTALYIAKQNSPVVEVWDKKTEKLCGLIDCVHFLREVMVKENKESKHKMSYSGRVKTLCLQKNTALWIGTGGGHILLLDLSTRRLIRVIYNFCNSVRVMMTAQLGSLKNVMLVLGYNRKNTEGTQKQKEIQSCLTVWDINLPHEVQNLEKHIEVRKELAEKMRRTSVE

SMILES | LRRK2 pIC50
Cn1nc(C2CC2)cc1Nc1ncc2cc(Cl)c(C3CCN([C@@H]4COC[C@@H]4O)CC3)cc2n1 (single isomer, unassigned) [Ex-1.23, (3S,4S) or (3R,4R) 4-(4-{6-chloro-2-[(3-cyclopropyl-1-methyl-1H-pyrazol-5-yl)amino]quinazolin-7-yl}piperidin-1-yl)oxolan-3-ol] | 9.00
Cn1nc(C(F)(F)F)cc1Nc1ncc2cc(Cl)c(C3CCN([C@@H]4COC[C@@H]4O)CC3)cc2n1 (single isomer, unassigned) [Ex-1.24, (3S,4S) or (3R,4R) 4-[4-(6-chloro-2-{[1-methyl-3-(trifluoromethyl)-1H-pyrazol-5-yl]amino}quinazolin-7-yl)piperidin-1-yl]oxolan-3-ol] | 8.58
Cc1cc(Nc2ncc3cc(Cl)c(C4CCN([C@]5(C)COC[C@@H]5O)CC4)cc3n2)n(C)n1 (single isomer, unassigned) [Ex-1.25, (3S,4S) or (3R,4R) 4-(4-{6-chloro-2-[(1,3-dimethyl-1H-pyrazol-5-yl)amino]quinazolin-7-yl}piperidin-1-yl)-4-methyloxolan-3-ol] | 8.99
[2H]C([2H])([2H])n1ncc(Nc2ncc3cc(Cl)c(C4CCN([C@]5(C)COC[C@@H]5O)CC4)cc3n2)c1C (single isomer, unassigned) [Ex-1.26, (3S,4S) or (3R,4R)-4-(4-(6-chloro-2-((5-methyl-1-(methyl-d3)-1H-pyrazol-4-yl)amino)quinazolin-7-yl)piperidin-1-yl)-4-methyltetrahydrofuran-3-ol] | >9.20
[2H]C([2H])([2H])n1ncc(Nc2ncc3cc(Cl)c(C4CCN([C@]5(C)COC[C@@H]5O)CC4)cc3n2)c1Cl (single isomer, unassigned) [Ex-1.27, (3S,4S) or (3R,4R)-4-(4-(6-chloro-2-((5-chloro-1-(methyl-d3)-1H-pyrazol-4-yl)amino)quinazolin-7-yl)piperidin-1-yl)-4-methyltetrahydrofuran-3-ol] | >9.20
Cc1cc(Nc2ncc3cc(Cl)c(C4CCN([C@]5(C)COC[C@@H]5O)CC4)cc3n2)n(C2CC2)n1 (single isomer, unassigned) [Ex-1.28, (3S,4S) or (3R,4R) 4-(4-{6-chloro-2-[(1-cyclopropyl-3-methyl-1H-pyrazol-5-yl)amino]quinazolin-7-yl}piperidin-1-yl)-4-methyloxolan-3-ol] | 9.12
CC(C)(O)Cn1ncc(Nc2ncc3cc(Cl)c([C@@H]4CCN(C5(C)COC5)C[C@H]4F)cc3n2)c1Cl (single isomer, unassigned) [Ex-2.1, (3S,4S) or (3R,4R) 1-(5-chloro-4-((6-chloro-7-(3-fluoro-1-(3-methyloxetan-3-yl)piperidin-4-yl)quinazolin-2-yl)amino)-1H-pyrazol-1-yl)-2-methylpropan-2-ol] | 8.79
Cc1cc2cnc(Nc3cnn(C4CC4)c3Cl)nc2cc1C1CCN(C2COCC2O)CC1 (single isomer, unassigned) [Ex-2.4, (3S,4S) or (3R,4R)-(4-(4-(2-((5-chloro-1-cyclopropyl-1H-pyrazol-4-yl)amino)-6-methylquinazolin-7-yl)piperidin-1-yl)tetrahydrofuran-3-ol] | >9.20
CC1(Cn2ncc(Nc3ncc4cc(Cl)c([C@@H]5CCN(C6COC6)C[C@H]5F)cc4n3)c2Cl)COC1 (single isomer, unassigned) [Ex-2.11, (3S,4S) or (3R,4R) 6-chloro-N-{5-chloro-1-[(3-methyloxetan-3-yl)methyl]-1H-pyrazol-4-yl}-7-[3-fluoro-1-(oxetan-3-yl)piperidin-4-yl]quinazolin-2-amine] | 9.10
CC1(Cn2ncc(Nc3ncc4cc(Cl)c([C@H]5CCN(C6COC6)C[C@@H]5F)cc4n3)c2Cl)COC1 (single isomer, unassigned) [Ex-2.12, (3S,4S) or (3R,4R) 6-chloro-N-{5-chloro-1-[(3-methyloxetan-3-yl)methyl]-1H-pyrazol-4-yl}-7-[3-fluoro-1-(oxetan-3-yl)piperidin-4-yl]quinazolin-2-amine] | >9.20

same assay, conditions: G2019S LRRK2, 134 μM ATP (Km ATP), mean values; read-out: LRRK2 pIC50 (converted)

SMILES | IC50 [nM]
Cc1c(Nc2ncc3cc(Cl)c(C4CCN(C5CCCC5(F)F)CC4)cc3n2)cnn1C1CC1 (single isomer, unassigned) [Ex-1.22, (S) or (R) 6-chloro-N-(1-cyclopropyl-5-methyl-1H-pyrazol-4-yl)-7-[1-(2,2-difluorocyclopentyl)piperidin-4-yl]quinazolin-2-amine] | 7.94
CC(C)(O)Cn1ncc(Nc2ncc3cc(Cl)c([C@@H]4CCN(C5(C)COC5)C[C@H]4F)cc3n2)c1Cl (single isomer, unassigned) [Ex-2.2, (3S,4S) or (3R,4R) 1-(5-chloro-4-((6-chloro-7-(3-fluoro-1-(3-methyloxetan-3-yl)piperidin-4-yl)quinazolin-2-yl)amino)-1H-pyrazol-1-yl)-2-methylpropan-2-ol] | < 0.631
CC1(N2CCC(n3cc(Nc4ncc5cc(Cl)c(C6CC67CC7)cc5n4)cn3)CC2)COC1 (single isomer, unassigned) [Ex-2.5, (S) or (R) 6-chloro-N-{1-[1-(3-methyloxetan-3-yl)piperidin-4-yl]-1H-pyrazol-4-yl}-7-(spiro[2.2]pentan-1-yl)quinazolin-2-amine] | 2.19
CC1(N2CCC(n3cc(Nc4ncc5cc(Cl)c(C6CC67CC7)cc5n4)cn3)CC2)COC1 (single isomer, unassigned) [Ex-2.6, (S) or (R) 6-chloro-N-{1-[1-(3-methyloxetan-3-yl)piperidin-4-yl]-1H-pyrazol-4-yl}-7-(spiro[2.2]pentan-1-yl)quinazolin-2-amine] | < 0.631
CC1(N2CC3(CC(n4cc(Nc5ncc6cc(Cl)c(C7CC78CC8)cc6n5)cn4)C3)C2)COC1 (single isomer, unassigned) [Ex-2.7, (S) or (R) 6-chloro-N-{1-[2-(3-methyloxetan-3-yl)-2-azaspiro[3.3]heptan-6-yl]-1H-pyrazol-4-yl}-7-(spiro[2.2]pentan-1-yl)quinazolin-2-amine] | 0.813
CC1(N2CC3(CC(n4cc(Nc5ncc6cc(Cl)c(C7CC78CC8)cc6n5)cn4)C3)C2)COC1 (single isomer, unassigned) [Ex-2.8, (S) or (R) 6-chloro-N-{1-[2-(3-methyloxetan-3-yl)-2-azaspiro[3.3]heptan-6-yl]-1H-pyrazol-4-yl}-7-(spiro[2.2]pentan-1-yl)quinazolin-2-amine] | 1.26
CC1(N2CCC(n3ncc(Nc4ncc5cc(Cl)c(C6CC67CCC7)cc5n4)c3Cl)CC2)COC1 (single isomer, unassigned) [Ex-2.9, (S) or (R) 6-chloro-N-{5-chloro-1-[1-(3-methyloxetan-3-yl)piperidin-4-yl]-1H-pyrazol-4-yl}-7-(spiro[2.3]hexan-1-yl)quinazolin-2-amine] | 36.3
Cc1c(Nc2ncc3cc(Cl)c(C4CCN(C5COC5)CC4)cc3n2)cnn1C1CCOC1 (single isomer, unassigned) [Ex-2.23, (S) or (R) 6-chloro-N-[5-methyl-1-(oxolan-3-yl)-1H-pyrazol-4-yl]-7-[1-(oxetan-3-yl)piperidin-4-yl]quinazolin-2-amine] | 1.15
Cc1c(Nc2ncc3cc(Cl)c(C4CCN(C5COC5)CC4)cc3n2)cnn1C1CCOC1 (single isomer, unassigned) [Ex-2.24, (S) or (R) 6-chloro-N-[5-methyl-1-(oxolan-3-yl)-1H-pyrazol-4-yl]-7-[1-(oxetan-3-yl)piperidin-4-yl]quinazolin-2-amine] | 0.741
